This note sets out measurements from patent publication US11787802B2, “Dihydrobenzimidazolones for medical treatment” (C4 Therapeutics, Inc., priority 2017, dated 2023).

In the assay the target is hCereblon(M1-L442)_hDDB1(M1-H1140) (Homo sapiens (Human), UniProt Q96SW2). As to the kind of experiment: Fluorescence direct binding protocol (tryptophan fluorescence titration). As to conditions: fluorescence titration at 20° C., excited at 280 nm, recorded at 340 nm; protein 5.0 E−8 M; assay buffer 50 mM Hepes 7.4 200 mM NaCl; read-out: Fluorescence h-Cereblon_DDB1 Mean Kd_EQ. The procedure, abridged: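 At 20° C., protein at constant concentration was titrated with ligand in DMSO over at least 12 steps, exciting tryptophan at 280 nm and reading emission at 340 nm. Intensities were corrected for dilution and filter effect, and Kd was fitted assuming 1:1 binding.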
hCereblon(M1-L442)_hDDB1(M1-H1140), sequence (Q96SW2 whole entry): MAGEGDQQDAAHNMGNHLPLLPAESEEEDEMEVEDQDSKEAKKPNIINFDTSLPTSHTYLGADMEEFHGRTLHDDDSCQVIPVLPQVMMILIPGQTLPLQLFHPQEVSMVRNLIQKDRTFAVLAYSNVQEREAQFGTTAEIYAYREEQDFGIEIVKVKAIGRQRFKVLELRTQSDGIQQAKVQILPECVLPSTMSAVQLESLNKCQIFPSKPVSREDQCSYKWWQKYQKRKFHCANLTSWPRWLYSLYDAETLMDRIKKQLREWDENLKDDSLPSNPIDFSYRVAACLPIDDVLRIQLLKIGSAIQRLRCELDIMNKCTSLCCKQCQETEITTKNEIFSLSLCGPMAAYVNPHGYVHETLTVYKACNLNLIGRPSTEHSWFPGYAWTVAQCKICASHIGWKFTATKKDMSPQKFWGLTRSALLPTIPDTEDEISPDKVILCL
hCereblon(M1-L442)_hDDB1(M1-H1140), sequence (Q16531 whole entry partner): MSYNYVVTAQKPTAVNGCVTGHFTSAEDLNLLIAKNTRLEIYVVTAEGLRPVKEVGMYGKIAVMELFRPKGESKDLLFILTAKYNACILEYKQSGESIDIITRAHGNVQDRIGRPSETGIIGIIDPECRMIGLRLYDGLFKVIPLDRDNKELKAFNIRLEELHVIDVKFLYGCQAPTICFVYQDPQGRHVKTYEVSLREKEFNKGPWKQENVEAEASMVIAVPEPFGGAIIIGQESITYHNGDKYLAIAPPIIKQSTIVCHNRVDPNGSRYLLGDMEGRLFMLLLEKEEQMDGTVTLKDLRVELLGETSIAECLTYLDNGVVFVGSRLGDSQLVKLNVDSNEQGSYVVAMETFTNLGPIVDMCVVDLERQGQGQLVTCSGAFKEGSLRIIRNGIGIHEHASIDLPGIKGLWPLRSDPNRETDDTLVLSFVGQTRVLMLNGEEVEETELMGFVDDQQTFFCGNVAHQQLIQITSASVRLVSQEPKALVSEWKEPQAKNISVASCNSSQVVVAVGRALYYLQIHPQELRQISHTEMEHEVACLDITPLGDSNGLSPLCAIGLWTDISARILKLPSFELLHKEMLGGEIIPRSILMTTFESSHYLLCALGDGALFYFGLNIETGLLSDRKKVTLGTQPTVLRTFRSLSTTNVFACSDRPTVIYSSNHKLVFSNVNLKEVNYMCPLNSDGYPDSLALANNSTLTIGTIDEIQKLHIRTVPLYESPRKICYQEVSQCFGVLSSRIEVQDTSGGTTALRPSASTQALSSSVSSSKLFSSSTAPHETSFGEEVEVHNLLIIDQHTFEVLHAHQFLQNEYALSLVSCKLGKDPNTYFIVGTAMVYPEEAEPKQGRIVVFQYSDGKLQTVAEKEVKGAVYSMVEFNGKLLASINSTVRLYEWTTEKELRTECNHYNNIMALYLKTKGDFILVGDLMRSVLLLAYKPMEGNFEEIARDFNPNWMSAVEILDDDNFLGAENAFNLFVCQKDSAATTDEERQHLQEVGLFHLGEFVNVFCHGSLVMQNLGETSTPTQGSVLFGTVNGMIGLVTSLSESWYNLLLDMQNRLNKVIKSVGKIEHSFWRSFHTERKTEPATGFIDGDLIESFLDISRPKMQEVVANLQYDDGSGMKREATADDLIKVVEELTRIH
Turning to `CC(=O)N1CCN(C(=O)c2ccc3[nH]c(=O)[nH]c3c2)CC1` [Example 22, 5-(4-Acetylpiperazine-1-carbonyl)-1H-benzo[d]imidazol-2(3H)-one], the Kd amounted to 103 nM.

As for `CNC(=O)c1ccc2c(c1)nc(C(F)(F)F)n2-c1ccc2[nH]c(=O)[nH]c2c1` [Example 13, N-Methyl-2′-oxo-2-(trifluoromethyl)-2′,3′-dihydro-1′H-[1,5′-bibenzo[d]imidazole]-5-carboxamide], the Kd amounted to 7 nM.

As to `O=C(Nc1ccc2[nH]c(=O)[nH]c2c1)N1CCN(Cc2ccc(Cl)cc2)CC1` [Example 135, 4-(4-Chlorobenzyl)-N-(2-oxo-2,3-dihydro-1H-benzo[d]imidazol-5-yl)piperazine-1-carboxamide], the Kd was found to be 7 nM.

`CC(C)c1nc2ccccc2n1-c1ccc2[nH]c(=O)n(C)c2c1` [Example 35, 2-Isopropyl-3′-methyl-1′,3′-dihydro-2′H-[1,5′-bibenzo[d]imidazol]-2′-one]: the Kd turned out to be 24 nM.

Turning to `Cn1cncc1-c1cc(-c2nc3ccccc3n2-c2ccc3c(c2)n(C)c(=O)n3C)c2ccccc2n1` [Example 31, 1′,3′-Dimethyl-2-(2-(1-methyl-1H-imidazol-5-yl)quinolin-4-yl)-1′,3′-dihydro-2′H-[1,5′-bibenzo[d]imidazol]-2′-one], the Kd is 7 nM.

In the case of `CCCc1nc2cc(C(=O)NC)ccc2n1-c1ccc2[nH]c(=O)[nH]c2c1` [Example 14, N-Methyl-2′-oxo-2-propyl-2′,3′-dihydro-1′H-[1,5′-bibenzo[d]imidazole]-5-carboxamide], the Kd stood at 321 nM.

Consider `CNC(=O)c1ccc2c(c1)nc(C1CCOCC1)n2-c1ccc2[nH]c(=O)[nH]c2c1` [Example 64, N-Methyl-2′-oxo-2-(tetrahydro-2H-pyran-4-yl)-2′,3′-dihydro-1′H-[1,5′-bibenzo[d]imidazole]-5-carboxamide], for which the Kd stood at 45 nM.

For the compound `CC(=O)Nc1ccc2c(c1)CCN2c1ccc2[nH]c(=O)[nH]c2c1` [Example 141, N-(1-(2-Oxo-2,3-dihydro-1H-benzo[d]imidazol-5-yl)indolin-5-yl)acetamide], the Kd turned out to be 53 nM.

As for `O=C(NC1CCNCC1)c1ccc2[nH]c(=O)[nH]c2c1` [Example 51, 2-Oxo-N-(4-piperidyl)-1,3-dihydrobenzimidazole-5-carboxamide], the Kd turned out to be 138 nM.

Take `CNC(=O)c1cccc2c1nc(C(C)C)n2-c1ccc2[nH]c(=O)[nH]c2c1` [Example 60, 2-Isopropyl-N-methyl-2′-oxo-2′,3′-dihydro-1′H-[1,5′-bibenzo[d]imidazole]-4-carboxamide]: the Kd amounted to 47 nM.

As to `CNC(=O)c1ccc2c(c1)nc(Cc1cccc(OC)c1)n2-c1ccc2[nH]c(=O)[nH]c2c1` [Example 28, 2-(3-Methoxybenzyl)-N-methyl-2′-oxo-2′,3′-dihydro-1′H-[1,5′-bibenzo[d]imidazole]-5-carboxamide], the Kd is 12 nM.

As for `CC(=O)N1CCN(c2ccc3[nH]c(=O)[nH]c3c2)CC1` [Example 62, 5-(4-Acetylpiperazin-1-yl)-1,3-dihydro-2H-benzo[d]imidazol-2-one], the Kd was less than 1 nM.

`Cc1sc2c(c1C)C(c1ccc(Cl)cc1)=N[C@@H](CC(=O)NCCCCCNC(=O)c1cccc3c1CCN3C(=O)Nc1ccc3[nH]c(=O)[nH]c3c1)c1nnc(C)n1-2` [Example D, N4-[5-[[2-[(9S)-7-(4-Chlorophenyl)-4,5,13-trimethyl-3-thia-1,8,11,12-tetrazatricyclo[8.3.0.02,6]trideca-2(6),4,7,10,12-pentaen-9-yl]acetyl]amino]pentyl]-N1-(2-oxo-1,3-dihydrobenzimidazol-5-yl)indoline-1,4-dicarboxamide]: the Kd was found to be 7 nM.

As to `CCc1nc2cc(C(=O)NCCOCCOCCNC(=O)C[C@@H]3N=C(c4ccc(Cl)cc4)c4c(sc(C)c4C)-n4c(C)nnc43)ccc2n1-c1ccc2[nH]c(=O)[nH]c2c1` [Example B, (S)—N-(2-(2-(2-(2-(4-(4-Chlorophenyl)-2,3,9-trimethyl-6H-thieno[3,2-f][1,2,4]triazolo[4,3-a][1,4]diazepin-6-yl)acetamido)ethoxy)ethoxy)ethyl)-2-ethyl-2′-oxo-2′,3′-dihydro-1′H-[1,5′-bibenzo[d]imidazole]-5-carboxamide], the Kd was 51 nM.

For `Cn1c(=O)[nH]c2ncc(C(=O)Nc3ccccc3)cc21` [Example 27, 1-Methyl-2-oxo-N-phenyl-3H-imidazo[4,5-b]pyridine-6-carboxamide], the Kd was 1 nM.

Turning to `CNC(=O)c1cccc2c1CCN2C(=O)Nc1ccc2[nH]c(=O)[nH]c2c1` [Example 93, N4-Methyl-N1-(2-oxo-2,3-dihydro-1H-benzo[d]imidazol-5-yl)indoline-1,4-dicarboxamide], the Kd was 10 nM.

In the case of `CNC(=O)c1ccc2c(c1)nc(-c1ccnc3ccccc13)n2-c1ccc2[nH]c(=O)[nH]c2c1` [Example 3, N-Methyl-2′-oxo-2-(quinolin-4-yl)-2′,3′-dihydro-1′H-[1,5′-bibenzo[d]imidazole]-5-carboxamide], the Kd is 39 nM.

On to `CN(C)C(=O)c1ccc2c(c1)nc(-c1cc(-c3cncn3C)nc3ccccc13)n2-c1ccc2[nH]c(=O)[nH]c2c1` [Example 18, N,N-Dimethyl-2-(2-(1-methyl-1H-imidazol-5-yl)quinolin-4-yl)-2′-oxo-2′,3′-dihydro-1′H-[1,5′-bibenzo[d]imidazole]-5-carboxamide], for which the Kd worked out at 16 nM.

Take `O=C(Nc1ccc2[nH]c(=O)[nH]c2c1)c1cccc2c1CCN2` [Example 144, N-(2-Oxo-2,3-dihydro-1H-benzo[d]imidazol-5-yl)indoline-4-carboxamide]: the Kd stood at 29 nM.

Turning to `O=c1[nH]c2cnc(-c3ccc(F)cc3)cc2[nH]1` [Example 36, 6-(4-Fluoro-phenyl)-1,3-dihydro-imidazo[4,5-c]pyridin-2-one], the Kd was determined as 77 nM.

Turning to `O=C(c1ccc2[nH]c(=O)[nH]c2c1)N1CCc2ccccc21` [Example 24, 5-(Indoline-1-carbonyl)-1H-benzo[d]imidazol-2(3H)-one], the Kd amounted to 1 nM.

For `CC(=O)NC1CCN(C(=O)c2ccc3[nH]c(=O)[nH]c3c2)CC1` [Example 29, N-(1-(2-Oxo-2,3-dihydro-1H-benzo[d]imidazole-5-carbonyl)piperidin-4-yl)acetamide], the Kd was 20 nM.

`CN(C(=O)c1ccc2[nH]c(=O)[nH]c2c1)c1ccccc1` [Example 96, N-Methyl-2-oxo-N-phenyl-2,3-dihydro-1H-benzo[d]imidazole-5-carboxamide]: the Kd came to 9 nM.

For `CC(=O)NCCC(=O)Nc1ccc2[nH]c(=O)[nH]c2c1` [Example 90, 3-Acetamido-N-(2-oxo-2,3-dihydro-1H-benzo[d]imidazol-5-yl)propanamide], the Kd stood at 19 nM.

Take `CNC(=O)c1ccc2c(c1)nc(Cc1ccccc1OC)n2-c1ccc2[nH]c(=O)[nH]c2c1` [Example 45, 2-(2-Methoxybenzyl)-N-methyl-2′-oxo-2′,3′-dihydro-1′H-[1,5′-bibenzo[d]imidazole]-5-carboxamide]: the Kd is 22 nM.

As to `O=c1[nH]c2ccc(-c3ccc(F)cc3F)cc2[nH]1` [Example 38, 5-(2,4-Difluoro-phenyl)-1,3-dihydro-benzoimidazol-2-one], the Kd turned out to be 82 nM.

With `O=C(Nc1ccc2[nH]c(=O)[nH]c2c1)c1coc2ccccc12` [Example 68, N-(2-Oxo-2,3-dihydro-1H-benzo[d]imidazol-5-yl)benzofuran-3-carboxamide], the Kd stood at 9 nM.

As to `COC(=O)c1cccc2c1CCN2C(=O)c1ccc2[nH]c(=O)[nH]c2c1` [Example 54, Methyl 1-(2-oxo-2,3-dihydro-1H-benzo[d]imidazole-5-carbonyl)indoline-4-carboxylate], the Kd stood at 25 nM.

In the case of `O=c1[nH]c2ccc(-n3ccnc3-c3ccnc4ccccc34)cc2[nH]1` [Example 12, 5-(2-(Quinolin-4-yl)-1H-imidazol-1-yl)-1H-benzo[d]imidazol-2(3H)-one], the Kd is 1 nM.

For `CNC(=O)c1ccc2c(c1)nc(-c1ccnc(OC)c1)n2-c1ccc2[nH]c(=O)[nH]c2c1` [Example 108, 2-(2-Methoxypyridin-4-yl)-N-methyl-2′-oxo-2′,3′-dihydro-1′H-[1,5′-bibenzo[d]imidazole]-5-carboxamide], the Kd stood at 107 nM.

`CC(=O)N1CCC(NC(=O)c2cnc3[nH]c(=O)[nH]c3c2)CC1` [Example 56, N-(1-Acetylpiperidin-4-yl)-2-oxo-2,3-dihydro-1H-imidazo[4,5-b]pyridine-6-carboxamide]: the Kd worked out at 2 nM.

As to `CC(=O)N1CCc2c(C(=O)Nc3ccc4[nH]c(=O)[nH]c4c3)cccc21` [Example 145, 1-Acetyl-N-(2-oxo-2,3-dihydro-1H-benzo[d]imidazol-5-yl)indoline-4-carboxamide], the Kd came to 84 nM.

As to `CC(=O)N1[C@@H]2CC[C@H]1CN(c1ccc3[nH]c(=O)[nH]c3c1)C2` [Example 63, 5-[rac-(1S,5R)-8-Acetyl-3,8-diazabicyclo[3.2.1]octan-3-yl]-1,3-dihydrobenzimidazol-2-one], the Kd was found to be 79 nM.

With `O=C1CCCN1c1ccc2[nH]c(=O)[nH]c2c1` [Example 33, 5-(2-Oxopyrrolidin-1-yl)-1,3-dihydro-2H-benzo[d]imidazol-2-one], the Kd was 24 nM.

In the case of `Cc1ccccc1-c1ccccc1C(=O)Nc1ccc2[nH]c(=O)[nH]c2c1` [Example 122, 2′-Methyl-N-(2-oxo-2,3-dihydro-1H-benzo[d]imidazol-5-yl)-[1,1′-biphenyl]-2-carboxamide], the Kd turned out to be 730 nM.

Regarding `CC(=O)Nc1cccc(C(=O)Nc2ccc3[nH]c(=O)[nH]c3c2)c1` [Example 75, 3-Acetamido-N-(2-oxo-2,3-dihydro-1H-benzo[d]imidazol-5-yl)benzamide], the Kd was 7 nM.

As to `COC(=O)c1ccc(Nc2ccc3[nH]c(=O)[nH]c3c2)nc1` [Example 153, Methyl 6-((2-oxo-2,3-dihydro-1H-benzo[d]imidazol-5-yl)amino)nicotinate], the Kd turned out to be 16 nM.
